pIC50: −log10 of the molar value.
Assays:
Format in all cases: cell-based
[1] = tested on: S. aureus subsp. aureus Rosenbach ATCC 33592 (MRSA); assay: Biofilm inhibition, crystal violet staining (MBIC50); conditions: double-dilution method; Table 1; read-out: MBIC50, strain A
Experimental: (§1) Analysis of biofilm inhibition. The assay was performed as previously described (Joseph et al., 2016; Feldman et al., 2012) with minor modifications. […] Next, 100 μL of serial 1:2 dilutions of compounds in TSB+1% glucose (32, 16, 8, 4, 2, 1, and 0.5 μg/mL) were prepared in flat-bottomed 96-well microplates (Costar, Corning). Control wells with no compounds and wells without bacteria containing each tested concentration of the compounds (blanks) were also prepared. An equal volume (100 μL) of bacterial suspensions diluted 1:100 (OD600=0.01) or 1:10 (OD600=0.1) in TSB+1% glucose was added to each well. […] The wells were vigorously rinsed at least four times with doubly distilled water (DDW). Next, 0.4% crystal violet (200 μL) was added to each well. After 45 min, wells were vigorously rinsed three times with DDW to remove unbound dye. After adding 200 μL of 30% acetic acid to each well, the plate was shaken for 15 min to release the dye. Biofilm formation was quantified by measuring the difference between absorbance of untreated and treated bacterial samples for each tested concentration of the compounds and the absorbance of appropriate blank well at 600 nm (A600) using Tecan plate reader. The MBIC50 was defined as the lowest concentration at which at least 50% reduction in biofilm formation was measured compared to untreated cells. Each concentration of compound was tested in five replicates, and three to six independent experiments were performed.

S. aureus ATCC 29213 = assay: as above; conditions: double-dilution method; Table 1; read-out: MBIC50, strain B
Experimental: as §1

S. mutans ATCC 700610 = assay: as above; conditions: double-dilution method; Table 1; read-out: MBIC50, strain F
Experimental: as §1

E. faecalis ATCC 29212 = assay: as above; conditions: double-dilution method; Table 1; read-out: MBIC50, strain D
Experimental: as §1

S. aureus BAA/043 = assay: as above; conditions: double-dilution method; Table 1; read-out: MBIC50, strain C
Experimental: as §1

S. epidermidis RP62A = assay: as above; conditions: double-dilution method; Table 1; read-out: MBIC50, strain E
Experimental: as §1

mature biofilms = assay: Biofilm eradication; conditions: mature 24-h-old biofilms
Experimental: Analysis of biofilm eradication. Biofilm eradication activity of the tested compounds determined against mature 24-h-old biofilms was performed as previously described (Pompilio et al., 2015). […] Untreated biofilm samples were used as control. Biofilms were quantified by measuring the absorbance at 600 nm. […] Concentrations were tested in five replicates, and three independent experiments were performed.

[2] = tested on: tested biofilm-forming Gram-positive pathogens; assay: Biofilm inhibition, statements over all tested strains; conditions: highest concentration tested
Experimental: as §1, with “Each concentration of compound was tested in five replicates, and three to six independent experiments were performed.” left out

Compound	pIC50 [1]	pIC50 (S. aureus ATCC 29213)	pIC50 (S. mutans ATCC 700610)	pIC50 (E. faecalis ATCC 29212)	pIC50 (S. aureus BAA/043)	pIC50 (S. epidermidis RP62A)	Eradication of mature biofilms (mature biofilms)	Biofilm formation: no inhibition up to (concentration) [2] [µM]
deca-trimethylammonium pillar[5]arene [Compound 21]	6.05	5.46	5.74	6.05	5.46	5.46	did not eradicate mature biofilms	
C[N+](C)(C)C.[Br-] [TMA—Br, tetramethylammonium bromide]	< 3.68	< 3.68	< 3.68	< 3.68	< 3.68	< 3.68		> 292
deca-N-methyl-imidazolium pillar[5]arene [Compound 22]	6.10	5.80	5.19	6.40	5.80	5.49		
C[N+](C)(C)C.[Cl-] [TMA—Cl, tetramethylammonium chloride]	< 3.53	< 3.53	< 3.53	< 3.53	< 3.53	< 3.53		> 208

From patent publication US12398092B2, “Method for inhibiting or disrupting biofilm formation, or reducing biofilm” (RAMOT AT TEL-AVIV UNIVERSITY LTD., priority 2015, dated 2025)
